The values that follow come from patent US20240190851A1, “FURAN FUSED RING-SUBSTITUTED GLUTARIMIDE COMPOUND” (MEDSHINE DISCOVERY INC., priority 2021, published 2024).

The structures appear in SMILES notation. Where a name gives a salt, the structure may show the parent alone.

In the assay the target is T1, androgen receptor AR (Homo sapiens, UniProt P10275, T878A).
T1 construct: degradation effect of compounds on androgen receptor AR in LNCaP cells; endogenous in cells; host or cells: LNCaP
T1 sequence (P10275 1-920 T878A): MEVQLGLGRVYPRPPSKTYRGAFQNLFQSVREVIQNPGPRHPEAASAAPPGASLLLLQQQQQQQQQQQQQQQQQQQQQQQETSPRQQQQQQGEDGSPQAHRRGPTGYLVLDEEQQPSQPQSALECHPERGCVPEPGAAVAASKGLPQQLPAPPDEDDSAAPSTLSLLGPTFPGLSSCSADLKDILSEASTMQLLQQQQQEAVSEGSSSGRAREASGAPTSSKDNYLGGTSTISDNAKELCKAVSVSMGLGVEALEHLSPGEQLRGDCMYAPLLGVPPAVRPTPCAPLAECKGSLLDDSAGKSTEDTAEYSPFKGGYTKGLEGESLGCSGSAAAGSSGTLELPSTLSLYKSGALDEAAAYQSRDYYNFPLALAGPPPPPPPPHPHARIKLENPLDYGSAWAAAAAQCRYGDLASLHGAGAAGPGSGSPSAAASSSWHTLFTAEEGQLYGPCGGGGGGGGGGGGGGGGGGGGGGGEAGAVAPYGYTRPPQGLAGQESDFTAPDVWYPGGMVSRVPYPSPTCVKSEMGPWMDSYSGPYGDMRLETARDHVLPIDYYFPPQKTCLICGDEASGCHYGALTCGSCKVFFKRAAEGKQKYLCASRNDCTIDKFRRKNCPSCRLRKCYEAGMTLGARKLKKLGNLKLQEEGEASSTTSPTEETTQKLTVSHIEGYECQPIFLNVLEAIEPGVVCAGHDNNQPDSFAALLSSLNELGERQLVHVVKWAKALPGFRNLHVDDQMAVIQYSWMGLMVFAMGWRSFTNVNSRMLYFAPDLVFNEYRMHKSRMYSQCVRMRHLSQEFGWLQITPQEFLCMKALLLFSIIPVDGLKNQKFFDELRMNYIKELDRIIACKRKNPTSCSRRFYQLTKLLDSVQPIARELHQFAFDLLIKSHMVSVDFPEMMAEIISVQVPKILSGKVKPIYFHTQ
The assay can be described thus: AR degradation in LNCaP cells by ICW method. The conditions noted are these: 24 hours. The format is cell-based. The method, then:
Experimental purpose: To test the degradation effect of compounds on androgen receptor AR in LNCaP cells by ICW method.
Day 1 • 1. The cell culture medium, 0.025% trypsin, and phosphate buffered saline were preheated in a 37° C. water bath. • 2. Cells digested by trypsin were centrifuged at 1000 rpm for 5 minutes. The supernatant was discarded, and then the cells were resuspended in fresh culture medium. • 3. The cells were inoculated in a COL-Coated CellCarrier-384 plate at a density of 4 k/[…]/well. • 4. The 384 cell plate inoculated with cells was placed in an ultra-clean bench for 10 minutes. • 5. The cell plate was cultured overnight in a CO2 cell incubator.
Day 2 • 1. The compound at a concentration of 10 mM was diluted to 3 mM (3 μL+7 μL of dimethyl sulfoxide) before serial dilution. • 2. The compound was serially diluted 3-fold (4 μL+8 μL) in an Echo plate using Bravo. • 3. ZPE and HPE control wells were setup, and the ZPE control wells were dimethyl sulfoxide. • 4. The Echo plate was centrifuged at 1000 rpm for 1 minute, and then the diluted compound was transferred from the Echo plate to an intermediate plate using Echo with 200 nL/well. • 5. To the intermediate plate was added the cell culture medium using Multidrop combi with […]. • 6. The intermediate plate was shaken on a horizontal shaker for 1 minute to mix the compound well with the culture medium. • 7. The compound was transferred from the intermediate dilution plate to the cell plate using Bravo with 4 μL/well. • 8. The cell plate was shaken on the horizontal shaker for 1 minute, and centrifuged at 800 rpm for 30 seconds. • 9. The cell plate was returned to the CO2 incubator, and cultured for another 24 hours.
Day 3 • 1. 4% paraformaldehyde was removed from the refrigerator and brought to room temperature. • 2. The cell plate was removed from the incubator. • 3. To the cell plate was directly added 4% paraformaldehyde with 40 μL/well. • 4. The plate was incubated at room temperature for 20 minutes. • 5. The culture medium was manually shaken off from the cell plate, inverted in a centrifuge, and centrifuged at 800 rpm for 7 seconds to fully remove the residual culture medium. • 6. To the cell plate was added 4% paraformaldehyde with 25 μL/well. • 7. The plate was incubated at room temperature for 30 minutes. • 8. The paraformaldehyde solution was manually shaken off from the cell plate, inverted in the centrifuge, and centrifuged at 800 rpm for 7 seconds. • 9. 0.1% Trition was added with 25 μL/well. • 10. The plate was incubated at room temperature for 10 minutes. • 11. The 0.1% Trition solution was manually shaken off from the cell plate, inverted in the centrifuge, and centrifuged at 800 rpm for 7 seconds. • 12. Intercept® (PBS) blocking buffer was added with 25 μL/well. • 13. The plate was incubated at room temperature for 1 hour. • 14. The Intercept® (PBS) blocking buffer solution was manually shaken off from the cell plate, inverted in the centrifuge, and centrifuged at 800 rpm for 7 seconds. • 15. Primary antibody solution was added with 20 μL/well. The cell plate was placed in the centrifuge, and centrifuged at 800 rpm for 7 seconds. • 16. The cell plate was sealed, and then incubated overnight at 4° C.
Day 4 • 1. The primary antibody solution was manually shaken off from the cell plate, inverted in the centrifuge, and centrifuged at 800 rpm for 7 seconds. • 2. The plate was washed three times with 110 μL of PBS. • 3. The cell plate was inverted in the centrifuge, and centrifuged at 800 rpm for 7 seconds. • 4. Secondary antibody and DAPI solution was added with 20 μL/well. The cell plate was placed in the centrifuge, and centrifuged at 800 rpm for 7 seconds. • 5. The plate was incubated at room temperature for 1 hour. • 6. The secondary antibody and DAPI solution was manually shaken off from the cell plate, inverted in the centrifuge, and centrifuged at 800 rpm for 7 seconds. • 7. […]

For orientation: DC50 means the concentration giving 50% degradation. A higher DC50 goes with degradation only at high concentration. What is called Dmax is the greatest extent of degradation seen. Turning to `N#Cc1ccc(O[C@H]2CC[C@H](NC(=O)c3ccc(N4CCC(CN5CCN(c6cccc7c6ccc6occ(C8CCC(=O)NC8=O)c67)CC5)CC4)nn3)CC2)cc1Cl` (stereo partly shown) [Hydrochloride of WX015], it took 13.7 nM to reach half-maximal degradation (DC50) and the Dmax was 102%.
On to `CC1(C)C(=O)N(c2ccc(C#N)c(C(F)(F)F)c2)C(=S)N1c1ccc(OCCN2CCN(CC(=O)Nc3ccc4c(C5CCC(=O)NC5=O)coc4c3)CC2)c(F)c1` (stereo not shown) [WX002], for which half-maximal degradation (DC50) was put at 8.9 nM and the Dmax came out at 72%.
